# pIC50: −log10 of the molar value. Like-named read-outs stand apart in the source and are kept apart here. Marks after values point to notes of the source that are not given here. Where a SMILES comes first, the peptide text is derived from it.
# What was measured:
# Format in all cases: binding
# [1] = system: AbGM2 (GM2/AbGM2); details: peptide at its IC50 AbGM1-1; lot # D710-2
# [2] = system: AbGM4 (GM4/AbGM4); details: peptide at its IC50 AbGM1-1; lot # GMR6
# [3] = system: rabbit anti-GM1 antibodies (AbGM1); details: for pIC50: AbGM1-1 lot # 431A
# [4] = system: AbF-GM1 (F-GM1/AbF-GM1); details: peptide at its IC50 AbGM1-1; lot # G351
# [5] = molecular target: cholera toxin B subunit (CTB); ligand GM1 (Vibrio cholerae serotype O1, UniProt P01556)
# Chain of cholera toxin B subunit (CTB); ligand GM1 (P01556 22-124 limits assumed): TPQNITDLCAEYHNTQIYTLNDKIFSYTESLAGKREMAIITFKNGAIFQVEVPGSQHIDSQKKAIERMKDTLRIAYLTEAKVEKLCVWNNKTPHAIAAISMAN
# [6] = molecular target: cholera toxin B subunit (CTB); ligand GD1b (Vibrio cholerae serotype O1, UniProt P01556)
# Chain of cholera toxin B subunit (CTB); ligand GD1b (P01556 22-124 limits assumed): as above
# [7] = molecular target: cholera toxin B subunit (CTB); ligand LOSGM1 (Vibrio cholerae serotype O1, UniProt P01556)
# Chain of cholera toxin B subunit (CTB); ligand LOSGM1 (P01556 22-124 limits assumed): as above
# [8] = system: AbGD1a (GD1a/AbGD1a); details: peptide at its IC50 AbGM1-1; lot # 109H
# [9] = system: AbSGPG (SGPG/AbSGPG); details: peptide at its IC50 AbGM1-1; lot # D710-5
# [10] = molecular target: cholera toxin B subunit (CTB); ligand Lipid AP (Vibrio cholerae serotype O1, UniProt P01556)
# Chain of cholera toxin B subunit (CTB); ligand Lipid AP (P01556 22-124 limits assumed): as above
# [11] = system: AbGD3 (GD3/AbGD3); details: peptide at its IC50 AbGM1-1; lot # R24
# [12] = molecular target: cholera toxin B subunit (CTB); ligand fucosyl-GM1 (F-GM1) (Vibrio cholerae serotype O1, UniProt P01556)
# Chain of cholera toxin B subunit (CTB); ligand fucosyl-GM1 (F-GM1) (P01556 22-124 limits assumed): as above
# [13] = system: AbGD1b (GD1b/AbGD1b); details: peptide at its IC50 AbGM1-1; lot # D710-6
compound,measurement,setting,value
"CC(C)C[C@H](NC(=O)[C@H](CC(N)=O)NC(=O)[C@@H]1CCCN1C(=O)[C@H](Cc1ccccc1)NC(=O)[C@H](Cc1c[nH]c2ccccc12)NC(=O)[C@@H](NC(=O)[C@H](CCCCN)NC(=O)[C@H](Cc1c[nH]c2ccccc12)NC(=O)[C@H](CO)NC(=O)[C@@H](N)C(C)C)[C@@H](C)O)C(=O)N[C@@H](C)C(=O)N[C@H](C(=O)O)C(C)C [PGM1-1, VSWKTWFPNLAV] (H-VSWKTWFPNLAV-OH; N-terminus and C-terminus assumed)",Inhibition percent at IC50AbGM1-1: GM2/AbGM2,[1],11.2%
same,Inhibition percent at IC50AbGM1-1: GM4/AbGM4,[2],0%
same,pIC50,"[3]; Table 4, dilution 1:500",6.56
same,pIC50,[3]; Table 5,6.56
same,Inhibition percent at IC50AbGM1-1: GM1/AbGM1-1,"[3]; Table 5, peptide at its IC50 AbGM1-1, lot # 431A",50^b percent
same,Inhibition percent at IC50 AbGM1-1: AbGM1-3,"[3]; peptide at its IC50 AbGM1-1, antibody lot # 101J, dilution 1:500",0%
same,Inhibition percent at IC50 AbGM1-1: AbeGM1-4,"[3]; peptide at its IC50 AbGM1-1, antibody lot # 104H, dilution 1:500",72.1%
same,Inhibition percent at IC50 AbGM1-1: AbGM1-5,"[3]; peptide at its IC50 AbGM1-1, antibody lot # 105T, dilution 1:500",44.6%
same,Inhibition percent at IC50 AbGM1-1: AbGM1-1,"[3]; peptide at its IC50 AbGM1-1, antibody lot # 431A, dilution 1:500, means of 4 values",50^a percent
same,Inhibition percent at IC50 AbGM1-1: AbGM1-2,"[3]; peptide at its IC50 AbGM1-1, antibody lot # 431B, dilution 1:500",27.1%
same,Inhibition percent at IC50AbGM1-1: F-GM1/AbF-GM1,[4],42.1%
same,IC50 GM1,[5],38.0 nM
same,Inhibition percent at IC50 GM1: GD1b,[6],39.9%
same,Inhibition percent at IC50 GM1: LOSGM1,[7],50.8%
same,Inhibition percent at IC50AbGM1-1: GD1a/AbGD1a,[8],0%
same,Inhibition percent at IC50AbGM1-1: SGPG/AbSGPG,[9],0%
same,Inhibition percent at IC50 GM1: Lipid AP,[10],0%
same,Inhibition percent at IC50AbGM1-1: GD3/AbGD3,[11],0%
same,Inhibition percent at IC50 GM1: F-GM1,[12],45.8%
same,Inhibition percent at IC50AbGM1-1: GD1b/AbGD1b,[13],32.1%

# — US8877161B2 (priority 2011, dated 2014)
